{"source": "patent US20230149362A1", "about": "“NEW CAPSULE COMPOSITION FOR PERORAL ADMINISTRATION” (Vicore Pharma AB, priority 2020, published 2023)", "key": {"[1]": {"test": "Solubility of free C21 in aqueous vehicles (saturated solutions, HPLC)", "type": "physicochemical", "conditions": "for solubility at 48 h: thermodynamic from solid, read-out: Concentration (solubility)", "text": "Vehicles (with sources) were as follows: sodium chloride (Sigma), ethanol (99.5%, Kemetyl), polyethylene glycols (BASF), phosphate buffered saline (PBS) pH 7.4 (Sigma), buffer solution pH 2.00 (citric acid, sodium hydroxide, hydrogen chloride), buffer solution pH 4.00 (citric acid, sodium hydroxide), buffer solution pH 6.00 (citric acid, sodium hydroxide), buffer solution pH 8.00 (boric acid, sodium hydroxide, hydrogen chloride) and buffer solution pH 10.00 (boric acid, sodium hydroxide, hydrogen chloride) (all Merck), and purified water (Elga Option 4 water purifier).\nSaturated solutions of free C21 (obtained from Syntagon AB, Södertälje, Sweden) were prepared in duplicates. The samples were kept magnetically stirred for 48 hours prior to analysis. For some samples, the added substance was dissolved and more was thereafter added to obtain saturated solutions.\nAfter 48 hours, pH was measured and thereafter 1 mL of solution was withdrawn. Undissolved substance was removed by centrifugation (1500 rpm, 30 minutes). The supernatant was diluted 10 to 500 times with acetonitrile/H2O, 30:70.\nC21 content was measured by HPLC."}, "[2]": {"test": "Stability of aqueous solutions of C21 under four storage conditions (sensitivity to light)", "type": "physicochemical", "conditions": "for Amount of Free C21, % of initial / Solution pH: 1 mg/mL in 0.9% NaCl", "experimental": "The stability of free C21 in 0.9% NaCl pH 9.4 was investigated.\nSolutions of 1 mg/mL of C21 were studied for four weeks under four different storage conditions. The solution was filtered through a 0.22 sterile syringe filter to minimize bacterial growth during the stability test. The samples were analysed by HPLC for purity.\nThe results are summarised in Table 3 below, in which the amount of C21 is given as a percentage of the initial amount of drug. Solution pHs were also measured and are shown within parenthesis in Table 3.\nThe stability of the sodium salt of C21 was also investigated under the same storage conditions.\nAt the time for analysis of the one week samples, it was noted that the heating cabinet for storage of samples at 40° C. was broken. In view of this, these samples were thereafter kept at room temperature for three days."}}, "note": "Like-named read-outs stand apart in the source and are kept apart here."}
{"compound": "CCCCOC(=O)NS(=O)(=O)c1sc(CC(C)C)cc1-c1ccc(Cn2ccnc2)cc1", "note": "[free C21, N-butyloxycarbonyl-3-(4-imidazol-1-ylmethylphenyl)-5-iso-butylthiophene-2-sulfonamide]", "values": [{"measurement": "solubility at 48 h", "setting": "[1]; 0.9% NaCl, pH 7.3, saline or isotonic, vehicle 0.9% NaCl, pH 7.3", "value": 120, "unit": "µg/mL"}, {"measurement": "solubility at 48 h", "setting": "[1]; 0.9% NaCl, pH 8.3, saline or isotonic, vehicle 0.9% NaCl, pH 8.3 adjusted by NaOH, one sample", "value": 1580, "unit": "µg/mL"}, {"measurement": "solubility at 48 h", "setting": "[1]; 0.9% NaCl, pH 9.7, saline or isotonic, vehicle 0.9% NaCl, pH 9.7 adjusted by NaOH", "value": 27400, "unit": "µg/mL"}, {"measurement": "solubility at 48 h", "setting": "[1]; 0.9% NaCl/EtOH 95:5 v/v, pH 7.9, aqueous with cosolvent or surfactant or cyclodextrin, vehicle 0.9% NaCl/EtOH 95:5 v/v, pH 7.9, one sample", "value": 570, "unit": "µg/mL"}, {"measurement": "solubility at 48 h", "setting": "[1]; PBS pH 7.4, pH 7.7, aqueous buffer, vehicle Buffer/PBS pH 7.4, measured pH 7.7", "value": 240, "unit": "µg/mL"}, {"measurement": "solubility at 48 h", "setting": "[1]; PEG/EtOH/H2O (40:10:50), pH 6.1, aqueous with cosolvent or surfactant or cyclodextrin, vehicle PEG/EtOH/H2O (40:10:50), pH 6.1", "value": 830, "unit": "µg/mL"}, {"measurement": "solubility at 48 h", "setting": "[1]; PEG/H2O (25:75), pH 5.5, aqueous with cosolvent or surfactant or cyclodextrin, vehicle PEG/H2O (25:75), pH 5.5", "value": 170, "unit": "µg/mL"}, {"measurement": "solubility at 48 h", "setting": "[1]; PEG/H2O (50:50), pH 6.2, aqueous with cosolvent or surfactant or cyclodextrin, vehicle PEG/H2O (50:50), pH 6.2", "value": 610, "unit": "µg/mL"}, {"measurement": "solubility at 48 h", "setting": "[1]; PG/EtOH/H2O (40:10:50), pH 6.3, aqueous with cosolvent or surfactant or cyclodextrin, vehicle PG/EtOH/H2O (40:10:50), pH 6.3", "value": 790, "unit": "µg/mL"}, {"measurement": "solubility at 48 h", "setting": "[1]; PG/H2O (10:90), pH 7.5, aqueous with cosolvent or surfactant or cyclodextrin, vehicle PG/H2O (10:90), pH 7.5", "value": 220, "unit": "µg/mL"}, {"measurement": "solubility at 48 h", "setting": "[1]; PG/H2O (25:75), pH 6.9, aqueous with cosolvent or surfactant or cyclodextrin, vehicle PG/H2O (25:75), pH 6.9", "value": 300, "unit": "µg/mL"}, {"measurement": "solubility at 48 h", "setting": "[1]; boric acid buffer pH 8.0, pH 7.9, aqueous buffer, vehicle Buffer/Boric acid pH 8.0, measured pH 7.9", "value": 500, "unit": "µg/mL"}, {"measurement": "solubility at 48 h", "setting": "[1]; boric acid buffer pH 10.0, pH 8.7, aqueous buffer, vehicle Buffer/Boric acid pH 10.0, measured pH 8.7", "value": 19100, "unit": "µg/mL"}, {"measurement": "solubility at 48 h", "setting": "[1]; citric acid buffer pH 2.0, pH 2.3, aqueous buffer, vehicle Buffer/Citric acid pH 2.0, measured pH 2.3", "value": 3950, "unit": "µg/mL"}, {"measurement": "solubility at 48 h", "setting": "[1]; citric acid buffer pH 4.0, pH 4, aqueous buffer, vehicle Buffer/Citric acid pH 4.0, measured pH 4.0", "value": 80, "unit": "µg/mL"}, {"measurement": "solubility at 48 h", "setting": "[1]; citric acid buffer pH 6.0, pH 6, aqueous buffer, vehicle Buffer/Citric acid pH 6.0, measured pH 6.0", "value": 60, "unit": "µg/mL"}, {"measurement": "Concentration (solubility)", "setting": "[1]; vehicle Buffer/Boric acid pH 10.0, measured pH 8.7", "value": 19900, "unit": "µg/mL"}, {"measurement": "solubility at 48 h", "setting": "[1]; water, pH 7.3, water, vehicle H2O, pH 7.3, stirred 48 hours", "value": 150, "unit": "µg/mL"}, {"measurement": "Amount of Free C21, % of initial", "setting": "[2]; 5° C., dark, 1 week", "value": "101 % of initial"}, {"measurement": "Solution pH", "setting": "[2]; 5° C., dark, 1 week", "value": "(9.2)"}, {"measurement": "Amount of Free C21, % of initial", "setting": "[2]; 5° C., dark, 2 weeks", "value": "107 % of initial"}, {"measurement": "Solution pH", "setting": "[2]; 5° C., dark, 2 weeks", "value": "(9.2)"}, {"measurement": "Amount of Free C21, % of initial", "setting": "[2]; 5° C., dark, 3 weeks", "value": "108 % of initial"}, {"measurement": "Solution pH", "setting": "[2]; 5° C., dark, 3 weeks", "value": "(9.1)"}, {"measurement": "Amount of Free C21, % of initial", "setting": "[2]; 5° C., dark, 4 weeks", "value": "108 % of initial"}, {"measurement": "Solution pH", "setting": "[2]; 5° C., dark, 4 weeks", "value": "(9.2)"}, {"measurement": "Amount of Free C21, % of initial", "setting": "[2]; 5° C., dark, Initial", "value": "100 % of initial"}, {"measurement": "Solution pH", "setting": "[2]; 5° C., dark, Initial", "value": "(9.4)"}, {"measurement": "Amount of Free C21, % of initial", "setting": "[2]; 40° C., dark, 1 week", "value": "101 % of initial"}, {"measurement": "Solution pH", "setting": "[2]; 40° C., dark, 1 week", "value": "(9.0)"}, {"measurement": "Amount of Free C21, % of initial", "setting": "[2]; 40° C., dark, 2 weeks", "value": "111 % of initial"}, {"measurement": "Solution pH", "setting": "[2]; 40° C., dark, 2 weeks", "value": "(8.6)"}, {"measurement": "Amount of Free C21, % of initial", "setting": "[2]; 40° C., dark, 3 weeks", "value": "106 % of initial"}, {"measurement": "Solution pH", "setting": "[2]; 40° C., dark, 3 weeks", "value": "(8.7)"}, {"measurement": "Amount of Free C21, % of initial", "setting": "[2]; 40° C., dark, 4 weeks", "value": "107 % of initial"}, {"measurement": "Solution pH", "setting": "[2]; 40° C., dark, 4 weeks", "value": "(8.7)"}, {"measurement": "Amount of Free C21, % of initial", "setting": "[2]; 40° C., dark, Initial", "value": "100 % of initial"}, {"measurement": "Solution pH", "setting": "[2]; 40° C., dark, Initial", "value": "(9.4)"}, {"measurement": "Amount of Free C21, % of initial", "setting": "[2]; RT, dark, 1 week", "value": "97 % of initial"}, {"measurement": "Solution pH", "setting": "[2]; RT, dark, 1 week", "value": "(9.2)"}, {"measurement": "Amount of Free C21, % of initial", "setting": "[2]; RT, dark, 2 weeks", "value": "109 % of initial"}, {"measurement": "Solution pH", "setting": "[2]; RT, dark, 2 weeks", "value": "(8.9)"}, {"measurement": "Amount of Free C21, % of initial", "setting": "[2]; RT, dark, 3 weeks", "value": "105 % of initial"}, {"measurement": "Solution pH", "setting": "[2]; RT, dark, 3 weeks", "value": "(9.0)"}, {"measurement": "Amount of Free C21, % of initial", "setting": "[2]; RT, dark, 4 weeks", "value": "106 % of initial"}, {"measurement": "Solution pH", "setting": "[2]; RT, dark, 4 weeks", "value": "(8.9)"}, {"measurement": "Amount of Free C21, % of initial", "setting": "[2]; RT, dark, Initial", "value": "100 % of initial"}, {"measurement": "Solution pH", "setting": "[2]; RT, dark, Initial", "value": "(9.4)"}, {"measurement": "Amount of Free C21, % of initial", "setting": "[2]; RT, light, 1 week", "value": "96 % of initial"}, {"measurement": "Solution pH", "setting": "[2]; RT, light, 1 week", "value": "(9.0)"}, {"measurement": "Solution pH", "setting": "[2]; RT, light, 2 weeks", "value": "(8.0)"}, {"measurement": "Amount of Free C21, % of initial", "setting": "[2]; RT, light, 2 weeks, precipitation, filtered", "value": "44 % of initial"}, {"measurement": "Amount of Free C21, % of initial", "setting": "[2]; RT, light, 3 weeks", "value": "96 % of initial"}, {"measurement": "Solution pH", "setting": "[2]; RT, light, 3 weeks", "value": "(8.5)"}, {"measurement": "Solution pH", "setting": "[2]; RT, light, 4 weeks", "value": "(7.7)"}, {"measurement": "Amount of Free C21, % of initial", "setting": "[2]; RT, light, 4 weeks, precipitation, filtered", "value": "13 % of initial"}, {"measurement": "Amount of Free C21, % of initial", "setting": "[2]; RT, light, Initial", "value": "100 % of initial"}, {"measurement": "Solution pH", "setting": "[2]; RT, light, Initial", "value": "(9.4)"}, {"measurement": "total impurity peak area", "setting": "[2]; samples stored at 5° C., RT/dark and 40° C.", "value": "around 2.5 area% of C21 peak area"}, {"measurement": "chemical stability in aqueous solution", "setting": "[2]; stored in dark at 5° C., RT and 40° C., four weeks", "value": "chemically stable"}]}
